How the values were obtained:
[1] = system: MCL1 protein in MV411 cells; test: Western blot, AML cell line MV411; format: cell-based; conditions: 50 nM
Method: (§1) Cytotoxic cancer cell lines HCC70 and TOV21G, and cytostatic cancer cell lines T47D and COV318 were seeded in wells of a six-well dish at a density of 1×10^6 cells/well and allowed to adhere overnight. Cells were then treated with 50 nM of Compound 1 for 16 or 24 hours, or with DMSO (0 hours) representing a negative control. Cells were harvested and placed on ice, and resuspended in RIPA lysis buffer supplemented with protease and phosphatase inhibitors. Clarified lysates prepared with 4×LSD running buffer and boiled at 95° C. for 5 minutes. Equivalent amounts of sample (10 μg total protein) were run on a 4-12% Bis-Tris gel and transferred to a PDVF membrane for Western blotting using standard Western blotting protocols. Membranes were blocked with Licor TBS blocking buffer then probed with antibodies for BCL-XL, BCL-2, MCL1, BID, and GAPDH visualized using and Odyssey imager (FIGS. 23A and 23D).
(§2) We next explored the expression of MCL1, BCL-XL and BCL2 in four different AML cell lines. MV411, OCI-AML3 and KG1 cells were separately grown and prepared as described in Example 2 for Western blotting, using antibodies specific for BCL2 (FIG. 24A), BCL-XL, MCL-1 and tubulin as an internal control (FIG. 24B).

[2] = system: MCL1 protein in OCI-AML3 cells; test: Western blot, AML cell line OCI-AML3; format: cell-based; conditions: 50 nM
Method: as §1, §2

[3] = system: MCL1 protein in KG1 cells; test: Western blot, AML cell line KG1; format: cell-based; conditions: 50 nM
Method: as §1, §2

[4] = system: gene expression in MDA-MB468 cells; test: Gene expression profiling via RNA-seq (DESeq2, linear model), MDA-MB468; format: cell-based; conditions: four hours, JQ1 125 nM, Compound 1 25 nM
Method: In addition, we compared the ability of JQ1 alone, Compound 1 alone, and a combination of JQ1 and Compound 1 to modify expression of various genes in two breast cancer cell lines. Two triple-negative breast cancer cell lines (HCC70 and MDA-MB468) were tested. The cell lines were treated with JQ1, Compound 1, the JQ1/Compound 1 combination, or DMSO for four hours, after which gene expression profiling via RNA-seq was performed. JQ1 was administered to the cells at a 125 nM final concentration in both single agent and combination experiments. Compound 1 was administered to the cells at a 25 nM final concentration in both single agent and combination experiments. Each experiment was performed in triplicate. One replicate of MDA-MB-468 treated with single-agent JQ1 was excluded from further analysis due to quality.
We employed DESeq2 (Love et al., Genome Biology, 15(12):550, 2014) to identify changes in gene expression due to the JQ1, Compound 1, and JQ1-Compound 1 combination treatment compared to the control DMSO condition based on the RNA-seq data. Genes resulting in a p-value below 0.01 and an absolute logFoldChange above 0.5 were considered to be differentially expressed. […] The same is true for 1459 of 2414 genes in MDA-MB468.
To identify the genes whose expression is impacted synergistically by the drug combination, we modeled the effect of each drug treatment on expression using a linear model. The expression of each gene after the combination treatment can be thought of as the combined impact of Compound 1, JQ1, and any synergistic interaction between the drug treatments on baseline gene expression. A linear model used to describe this relationship could therefore be represented as:
Gene Expression after combination treatment=Baseline Expression+Compound 1 effect+JQ1 effect+Combination effect (Synergistic Impact)
By fitting the expression data for each gene using this model, we were able to evaluate the effect of each treatment, and identify cases where a synergistic interaction between Compound 1 and JQ1 impacts final gene expression. After fitting the linear model to each gene, the weight and p-value of each term can be evaluated. The combination term's weight signifies the mean change resulting from a synergetic impact on expression, with a negative weight indicating synergistic downregulation. Its associated p-value represents the probability that the combination term is not relevant to final gene expression. Using this approach, we identified 1806 genes in HCC70 and 2205 genes in MDA-MB468 whose expression change in the combination treatment was synergistic and whose associated p-value was less than a threshold cutoff of 0.01. The expression of these synergistic genes could not be explained by an additive effect of Compound 1 and JQ1 alone.

OV15612 xenograft = test: Ovarian PDX OV15612, tumor volume; format: in vivo, mouse; conditions: OV15612 (FGFR1 super enhancer, CCNE1 high); 40 or 30 mg/kg i.v. BIW
Method: (§3) Patient-derived xenograft (PDX) models from ovarian carcinoma patients (OV5387, OV14702, OV14972, OV15398, OV15576, OV15696, OV15612, OV15631) were established in NOD-SCID mice at Crown Bioscience (San Diego, USA). Cryo vials containing tumor cells were thawed and prepared for injection into mice. Cells were washed in PBS, counted, and resuspended in cold PBS at a concentration of 50,000-100,000 viable cells/100 ul. Cell suspensions were mixed with an equal volume of Cultrex ECM and kept on ice during transport to the vivarium. Cells were prepared for injections by withdrawing ECM-Cell mixture into a chilled slip-tip syringe fitted with a 26G 7/8 (0.5 mm×22 mm) needle. The filled syringes were kept on ice to avoid the solidification of ECM. Each mouse was inoculated subcutaneously in the right flank with 200 uL of the cell suspension. Tumor sizes were measured in two dimensions using a caliper, and the volumes were expressed in mm3 using the formula: V=0.5 a×b^2 where a and b are the longest and shortest diameters of the tumor, respectively. Compound 1 treatment was started when the average tumor size reached 150-200 mm^3.
(§4) Compound 1 was formulated in w/v 20% Captisol (pH 4-6) and administered by i.v. twice weekly (BIW) at a final dose of 40 mg/kg or 30 mg/kg in a 10 ml/kg volume. Tumor volumes were measured twice weekly over the course of the study. […]

OV15696 xenograft = test: Ovarian PDX OV15696, tumor volume; format: in vivo, mouse; conditions: 40 or 30 mg/kg i.v. BIW
Method: as §3, §4

HR^+ breast cancer cells = test: Inhibition of HR^+ breast cancer cells in vitro (data not shown); format: cell-based; conditions: including cells with acquired resistance to aromatase inhibitors and cells no longer responding to CDK4/6 inhibitors

In the case of `CN(C)C/C=C/C(=O)Nc1ccc(C(=O)N[C@@]2(C)CCC[C@@H](Nc3ncc(Cl)c(-c4c[nH]c5ccccc45)n3)C2)nc1` [Compound 1, N-((1S,3R)-3-(5-chloro-4-(1H-indol-3-yl)pyrimidin-2-ylamino)-1-methylcyclohexyl)-5-((E)-4-(dimethylamino)but-2-enamido)picolinamide], the “MCL1 protein level (Western blot)” value [1] is reported as “significant reduction in MCL1”, the “MCL1 protein level (Western blot)” value [2] is reported as “significant reduction in MCL1” and the “MCL1 protein level (Western blot)” value [3] is reported as “significant reduction in MCL1”. For the same compound, the “Average Expression (TPM) FOXC1” value ([4]; DMSO 33.731) was 25.556 TPM, the “Average Expression (TPM) GATA3” value ([4]; DMSO 34.244) was 21.773 TPM and the “Average Expression (TPM) TGIF1” value ([4]; DMSO 145.88) was 134.08 TPM. The “Response to treatment (tumor growth)” value (OV15612 xenograft) was “responded”, the “Response to treatment (tumor growth)” value (OV15696 xenograft) was “non-responders” and the “Inhibition of HR^+ breast cancer cells in vitro” value (HR^+ breast cancer cells) was “inhibits many HR^+ breast cancer cells in vitro”.

— patent US20200113902A1, “COMPOSITIONS AND METHODS FOR TREATING CANCERS WITH COVALENT INHIBITORS OF CYCLIN-DEPENDENT KINASE 7 (CDK7)” (Syros Pharmaceuticals, Inc., priority 2017, published 2020)
